{"source": "paper PMC10762035", "about": "“Molecular basis of human trace amine-associated receptor 1 activation” (Nature Communications, 2024)", "assay_type_in_all_cases": "cell-based", "key": {"hTA1 C88/178S": {"biological_target": "T1, hTA1 C88/178S (Homo sapiens, UniProt Q96RJ0, C178S/C88S)", "T1 construct": "expressed in transfected cells; host or cells: HEK293T", "T1 sequence (Q96RJ0 1-339 C88S/C178S)": "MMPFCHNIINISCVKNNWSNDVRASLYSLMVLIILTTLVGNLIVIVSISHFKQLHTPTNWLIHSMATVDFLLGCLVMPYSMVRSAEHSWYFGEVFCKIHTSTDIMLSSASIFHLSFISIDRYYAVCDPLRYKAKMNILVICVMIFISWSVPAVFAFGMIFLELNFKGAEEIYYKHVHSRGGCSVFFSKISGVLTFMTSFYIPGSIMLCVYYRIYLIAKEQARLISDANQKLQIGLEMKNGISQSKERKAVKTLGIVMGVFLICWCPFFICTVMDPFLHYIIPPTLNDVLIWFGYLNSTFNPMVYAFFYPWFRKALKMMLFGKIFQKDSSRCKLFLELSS", "experiment": "GloSensor cAMP accumulation assay, C88S/C178S double mutant", "conditions": "C88S, C178S; normalized (β-PEA = 100); each row is one independent experiment, 3 replicates"}, "hTA1": {"biological_target": "T2, hTA1 (Homo sapiens, UniProt Q96RJ0)", "T2 construct": "expressed in transfected cells; host or cells: HEK293T", "T2 sequence (Q96RJ0 1-339)": "T1 sequence (Q96RJ0 1-339 C88S/C178S) with S88C, S178C", "experiment": "GloSensor cAMP accumulation assay, concentration response, wild-type hTA1 in transfected HEK293T cells;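 further: luminescence read after 30 min compound exposure at room temperature in cells preloaded with D-Luciferin, reflecting Gs-driven cAMP rise, efficacy scaled to the maximal β-PEA response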", "conditions": "for Dose-response curves for asenapine vs endogenous trace amines: log[Compound], replicate values (N=2)"}, "hTA1 C5S": {"biological_target": "T3, hTA1 C5S (Homo sapiens, UniProt Q96RJ0, C5S)", "T3 construct": "expressed in transfected cells; host or cells: HEK293T", "T3 sequence (Q96RJ0 1-339 C5S)": "T1 sequence (Q96RJ0 1-339 C88S/C178S) with C5S, S88C, S178C", "experiment": "GloSensor cAMP accumulation assay, C5S mutant", "conditions": "for C5S - Normalized Luminescence Counts (N=2): log[Compound], single wells"}}, "note": "Where a chain is given by its changes, count along the chain named. Where “and” joins values, the source holds several entries; their conditions need not be identical. Equal entries are not always repeated.", "data": [{"smiles": "NCCc1ccccc1", "note": "[β-PEA, β-phenethylamine]", "values": [{"measurement": "Emax values, Mean", "setting": "hTA1 C88/178S", "result": 100}, {"measurement": "Emax values, Avg", "setting": "hTA1; WT hTA1, Figure 5B, β-PEA = 100, average of the independent experiments", "result": 100}, {"measurement": "Emax values, Mean", "setting": "hTA1; WT hTA1, Figure 5B, β-PEA = 100, each row one independent experiment (3 replicates)", "result": 100}, {"measurement": "pEC50 values, Avg", "setting": "hTA1; WT hTA1, average of the two experiments, Figure 2B source data", "result": 7.094}, {"measurement": "pEC50 values, Mean", "setting": "hTA1; WT hTA1, each line an independent experiment, 3 replicates, Figure 2B source data", "result": "7.155 and 7.032"}, {"measurement": "Emax values, Avg", "setting": "hTA1; WT hTA1, β-PEA = 100, average of the two experiments", "result": 100}, {"measurement": "Emax values, Mean", "setting": "hTA1; WT hTA1, β-PEA = 100, each line an independent experiment, 3 replicates", "result": 100}, {"measurement": "Emax values, Avg", "setting": "hTA1; WT, Avg of the two experiments, β-PEA = 100", "result": 100}, {"measurement": "Emax values, Avg", "setting": "hTA1; WT, average of the experiments, β-PEA = 100", "result": 100}, {"measurement": "Emax values, Avg", "setting": "hTA1; WT, average of the two experiments", "result": 100}, {"measurement": "Emax values, Mean", "setting": "hTA1; WT, mean of each independent experiment (3 replicates), β-PEA = 100", "result": 100}, {"measurement": "Emax values, Mean", "setting": "hTA1; WT, mean of one experiment (3 replicates), β-PEA = 100", "result": 100}, {"measurement": "Emax values, Mean", "setting": "hTA1; WT, single experiments (3 replicates each), β-PEA = 100", "result": 100}, {"measurement": "Dose-response curves for asenapine vs endogenous trace amines", "setting": "hTA1; M = -5", "result": "114.55 and 104.58 and 118.623 and 102.53 and 95.7683 and 107.085"}, {"measurement": "Dose-response curves for asenapine vs endogenous trace amines", "setting": "hTA1; M = -5.522", "result": "96.3904 and 87.8446 and 97.5922 and 98.0692 and 90.9789 and 92.0588"}, {"measurement": "Dose-response curves for asenapine vs endogenous trace amines", "setting": "hTA1; M = -6", "result": "88.2006 and 75.1148 and 94.0536 and 103.14 and 88.8658 and 89.805"}, {"measurement": "Dose-response curves for asenapine vs endogenous trace amines", "setting": "hTA1; M = -6.522", "result": "73.7573 and 64.299 and 91.1383 and 74.7791 and 68.7219 and 73.7461"}, {"measurement": "Dose-response curves for asenapine vs endogenous trace amines", "setting": "hTA1; M = -7", "result": "70.4636 and 45.5827 and 61.4726 and 66.5619 and 44.258 and 53.6961"}, {"measurement": "Dose-response curves for asenapine vs endogenous trace amines", "setting": "hTA1; M = -7.522", "result": "36.1467 and 21.3027 and 35.9464 and 26.7905 and 17.9158 and 22.3766"}, {"measurement": "Dose-response curves for asenapine vs endogenous trace amines", "setting": "hTA1; M = -8", "result": "22.727 and 16.7405 and 21.3472 and 13.3611 and 11.9525 and 11.6238"}, {"measurement": "Dose-response curves for asenapine vs endogenous trace amines", "setting": "hTA1; M = -8.522", "result": "4.5 and 4.523 and 5.969 and 4.393 and 2.514 and 2.6083"}, {"measurement": "Dose-response curves for asenapine vs endogenous trace amines", "setting": "hTA1; M = -9", "result": "1.986 and 1.318 and 1.8743 and 1.716 and 1.012 and 1.106"}, {"measurement": "Dose-response curves for asenapine vs endogenous trace amines", "setting": "hTA1; M = -9.522", "result": "-1.063 and -1.33 and -0.4402 and -0.06817 and 0.1666 and -0.4908"}, {"measurement": "Dose-response curves for asenapine vs endogenous trace amines", "setting": "hTA1; M = -10", "result": "-0.596 and -1.264 and -0.5515 and -0.4438 and -0.7725 and -0.6786"}, {"measurement": "Dose-response curves for asenapine vs endogenous trace amines", "setting": "hTA1; M = -10.522", "result": "-1.3749 and -1.931 and -0.6405 and 0.0727 and -0.5847 and -1.101"}, {"measurement": "Dose-response curves for asenapine vs endogenous trace amines", "setting": "hTA1; M = -11", "result": "-0.1286 and -1.241 and 0.2497 and 0.6362 and -0.3499 and -0.7725"}, {"measurement": "Dose-response curves for asenapine vs endogenous trace amines", "setting": "hTA1; M = -11.522", "result": "-0.01735 and -1.575 and -0.7963 and 0.5892 and -0.3969 and -0.256"}, {"measurement": "Dose-response curves for asenapine vs endogenous trace amines", "setting": "hTA1; M = -12", "result": "-1.353 and -1.3749 and -1.286 and 0.02574 and -0.4908 and -0.3029"}, {"measurement": "Dose-response curves for asenapine vs endogenous trace amines", "setting": "hTA1; M = -12.522", "result": "-1.152 and -1.664 and -0.9075 and 0.5892 (2×) and 0.4483"}, {"measurement": "Span ± SEM (Emax normalized to β-PEA)", "setting": "hTA1; wt hTA1, HEK293T, n=3", "result": "100 ± 2.26"}, {"measurement": "pEC50 ± SEM", "setting": "hTA1; wt hTA1, HEK293T, n=3", "result": "7.09 ± 0.05"}, {"measurement": "EC50", "setting": "hTA1; wt hTA1, HEK293T, n=3, read-out: EC50", "result": 80.6, "unit": "nM"}, {"measurement": "Emax", "setting": "hTA1; wt hTA1, relative to β-PEA", "result": 100.0, "unit": "%"}, {"measurement": "Span ± SEM (Emax normalized to β-PEA)", "setting": "hTA1 C5S; C5S, n=2", "result": "100 ± 2.22"}, {"measurement": "pEC50 ± SEM", "setting": "hTA1 C5S; C5S, n=2", "result": "7.04 ± 0.05"}, {"measurement": "EC50", "setting": "hTA1 C5S; C5S, n=2, read-out: EC50", "result": 90.7, "unit": "nM"}, {"measurement": "ΔEmax values (each mutant value - WT average), Mean", "setting": "hTA1 C5S; hTA1 C5S minus WT average", "result": 0}, {"measurement": "ΔpEC50 values (each mutant value - WT average), Mean", "setting": "hTA1 C5S; hTA1 C5S minus WT average", "result": "0.0587 and -0.1606"}, {"measurement": "pEC50 values, Mean", "setting": "hTA1 C5S; hTA1 C5S, mean of 3 replicates, one line per independent experiment", "result": "7.152 and 6.9329"}, {"measurement": "Emax values, Mean", "setting": "hTA1 C5S; hTA1 C5S, β-PEA = 100, mean of 3 replicates, one line per independent experiment", "result": 100}, {"measurement": "C5S - Normalized Luminescence Counts (N=2)", "setting": "hTA1 C5S; M = -5", "result": "105.865 and 101.779 and 112.458 and 98.7643 and 96.9001 and 118.028"}, {"measurement": "C5S - Normalized Luminescence Counts (N=2)", "setting": "hTA1 C5S; M = -5.522", "result": "88.1188 and 112.932 and 94.5762 and 114.438 and 73.9771 and 93.1716"}, {"measurement": "C5S - Normalized Luminescence Counts (N=2)", "setting": "hTA1 C5S; M = -6", "result": "83.9419 and 90.8734 and 98.6952 and 79.8459 and 79.6388"}, {"measurement": "C5S - Normalized Luminescence Counts (N=2)", "setting": "hTA1 C5S; M = -6.522", "result": "76.5362 and 74.7073 and 70.3723 and 75.427 and 66.8654 and 70.3867"}, {"measurement": "C5S - Normalized Luminescence Counts (N=2)", "setting": "hTA1 C5S; M = -7", "result": "61.9506 and 59.2638 and 58.7445 and 43.9424 and 45.3233 and 47.3256"}, {"measurement": "C5S - Normalized Luminescence Counts (N=2)", "setting": "hTA1 C5S; M = -8.522", "result": "3.721 and 3.676 and 4.421 and 4.379 and 2.308 and 3.965"}]}]}
